Data set [1] can be described thus: Formation of inclusion complexes with HPCD (UV spectroscopy, Hill linearization). The following applies: pH 6.2, 22 °C; for EE, % / LC, %: 0.01 M. The format is physicochemical. The procedure: To optimize the system composition, similar experiments were carried out on the formation of EG and apiol inclusion complexes with HPCD (Figure S1). […] According to these changes, the dissociation constants of the EG–HPCD and apiol–HPCD complexes (Figure S2) were calculated by Hill’s equation (Table 1). […] The physicochemical parameters of the interaction of APAB and terpenoids (X) with CD were studied by determining the concentration of substances in the aqueous fraction ([APAB] + [APAB-MCD]) according to the calibration dependence (Figure 1C) for systems with a constant amount of the essential oil component X and the concentration gradient MCD (Table 1). Theta (θ) is a fraction of the bound substance X:θ = [X-MCD]/([X-MCD] + [X]) and was calculated based on the dependence of the absorption intensity X on the MCD concentration in the system in the form of a sigmoidal Hill curve with subsequent linearization (Section 3, Section 3.3 and Section 3.4).
The molar excess of CD varied from 0.04 to 10). Further, the complexes were incubated for 1 h at 37 °C and then centrifuged ([…], 15 min, Eppendorf tubes) to separate the insoluble fractions. Complexes were studied by UV and FTIR spectroscopy.
UV spectra of solutions (point 3.3.1) were recorded on the AmerSham Biosciences UltraSpec 2100 pro device (USA) three times in the range of 200–400 nm in a quartz cell Hellma 100–QS with an optical path of 1 cm. Background spectrum (5 mM sodium phosphate buffer (pH 6.2) with 50% EtOH) was subtracted as a blank.
(1) Calculation of the dissociation constants X–MCD and X–HPCD, where X is a “guest” compound, considering the equilibrium: Xaq + n MCDaq ↔ X·nMCDaq, where Kd = [MCDaq]^n · [Xaq]/[X·nMCDaq].
First, fitting of the curves of change of the analytical signal ξ (peak intensity or peak position) versus concentration of the MCD or HPCD or was carried out using the Hill equations: (1) ξ = ξ∞ · [MCD]^n/([MCD]^n + K^n), where ξ∞—horizontal asymptote; (2) ξ = ξ0 + (ξ∞–ξ0) · [MCD]^n/([MCD]^n + K^n). Second, calculation n and Kd values by Hill’s linearization in n-binding site model: lg (θ/(1 – θ)) = n · lg [L] – lg Kd, where θ = |(ξ – ξ0)/(ξ∞ − ξ0)|is a fraction of the bound substance. N in Hill equation—number of drug molecules per CD torus.

The nature of data set [2]: Solubility of X in water and in the presence of MCD/HPCD (UV absorbance).
Procedure: (§1) (3) Solubility of X in water C0 = [Xaq] = A/(ε · l) was determined by UV absorbance after centrifugation of samples (10 min, 10,000× g). l = 1 cm. ε—molar absorbance coefficient (Figure 1C).
The nature of data set [3]: Dissolution of APAB on inclusion into CD, observed in a light microscope. The format is physicochemical. The following applies: MCD and HPCD. As for the experimental part: The dependence of the dissolution degree on the content of CD in the system was determined. […] Since soluble complex forms of EG, apiol and other individual components of essential oils have been obtained, a quantitative study of the adjuvant and synergistic activities of APAB is relevant but previously impossible because of the stratification of substances and the formation of oil fractions. The following are the results of experiments to determine the antibacterial and synergistic effects of adjuvant–CD complexes.

For data set [4], the system named is E. coli. Also on record: method as in PMID 20214546. The following applies: EG in the form of a complex with CD; cited from earlier work.
Data set [5] has as its system Gram-negative bacteria. Also noted: method as in PMID 19540744. The following applies: cited from earlier work.
Details of data set [6]: method as in doi:10.1016/j.foodres.2009.06.006. The settings on record: complex with β-form of CD; cited from earlier work.
Details of data set [7]: method as in PMID 20214546. The following applies: host:guest molar ratio of 1:1; cited from earlier work.
The nature of data set [8]: Solid-phase FTIR microscopy of the EG–HPCD complex (distribution of EE). The settings on record: EG–HPCD complex in solid form. The format is physicochemical. The text has this:
To level the overlap of bond fluctuations in water molecules and the effect of hydration, the spectra of the EG–HPCD complex in solid form were registered as complementary materials (Figure S6). There are characteristic peaks of EG, which were quenched in the aqueous phase, C–Carom and C=C of the ethylene group. In the solid phase, we observed peaks corresponding to the stretching oscillations of CH2, CH3 groups (2900–3000 cm^−^1) and O-H (3200–3500 cm^−^1) without solvent contribution. […] EG was effectively (EE > 70%) included in two-thirds of the sample by quantity, in the remaining part EE exceeded 25–35%.
ATR-FTIR spectra of samples’ solutions (point 3.3.1) were recorded using a Bruker Tensor 27 spectrometer equipped with a liquid nitrogen cooled MCT (mercury cadmium telluride) detector. Samples were placed in a thermostatic cell BioATR-II with ZnSe ATR element (Bruker, Ettlingen, Germany). The IR spectrometer was merged with a constant flow of N2 (NiGen HF-1, Clint, Italy). FTIR spectra were acquired from 900 to 3000 cm^−1 with 1 cm^−1 spectral resolution. For each spectrum, 50–70 scans were accumulated at 20 kHz scanning speed and averaged. ATR-FTIR spectra of solid samples placed on KBr glass were recorded using a Bruker Lumos II IR microscope in the region from 700 to 4000 cm^−1 with 1 cm^−1 spectral resolution with scanning in the area on average 1 × 1 microns. […]

The conditions of data set [9]: pH 6.2.
Procedure: as §1

SMILES strings stand for the structures. A value given as a limit tells only on which side of the number the result lay.

For the compound `C=CCc1cc(OC)c2c(c1OC)OCO2` [Apiol], in [1], the “EE, %” value is reported as 7 ± 1%; the “LC, %” value came out at 9 ± 1%; the n is reported as 1.56 ± 0.25. Moreover, the solubility in data set [2] (22 °C, pH 6.2, water) worked out at 130 ± 10 µM. Moreover, in data set [3], the “amount of CD required for a noticeable conversion to the complex/soluble form” value was found to be 2 fold molar excess and the “molar excess of CD for almost complete dissolution” value is recorded as 10–15 fold molar excess.
For `C=CCc1ccc(O)c(OC)c1` [Eugenol, 4-allyl-2-methoxyphenol], the “concentration already active in growth inhibition” value in [4] is 0.5 mg/mL. Moreover, in data set [1], the “EE, %” value is given as 56 ± 7%; the “LC, %” value came to 9 ± 1%; the n was 1.2 ± 0.1. The “reduction of the MIC of antibiotics by EG as an adjuvant” value in [5] (Gram-negative bacteria, highest values for tetracycline and vancomycin) was 5–1000 times. The “concentration at which EG forms defects in the membranes of bacteria” value in data set [5] (suggested) is 1 mM. Also, the half-dissociation period in data set [6] is reported as 3 h. Further, in [7], the “initial amount of EG included in CD” value was ~92% and the “mass fraction of EG in the sample” value is “about 58%”. For the same compound, the “EE in the remaining part of the sample” value in data set [8] (remaining part) is 25–35%. For the same compound, the “EE in two-thirds of the sample” value in data set [8] (two-thirds of the sample by quantity) is given as > 70%. Besides, in data set [9], the “Cmax in the Presence of 2 mM HPCD” value is reported as 8.3 ± 0.2 (MCD), 8.5 ± 0.1 (HPCD) mM; the “Cmax in the Presence of 2 mM MCD” value is 8.3 ± 0.2 (MCD), 8.5 ± 0.1 (HPCD) mM; the “Cmax in the Presence of 10 mM HPCD” value is 11 ± 1 (MCD), 13 ± 1 (HPCD) mM; the “Cmax in the Presence of 10 mM MCD” value is 11 ± 1 (MCD), 13 ± 1 (HPCD) mM. In addition, in data set [3], the “amount of CD required for a noticeable conversion to the complex/soluble form” value is given as “equimolar” and the “molar excess of CD for almost complete dissolution” value is 5 fold molar excess.
Consider `CC1CCC(C(C)C)C(O)C1` (centres unmarked) [Menthol], for which, in [9], the “Cmax in the Presence of 2 mM MCD” value is reported as 1.4 ± 0.2 mM and the “Cmax in the Presence of 10 mM MCD” value came out at 8.5 ± 0.8 mM.
Take `C=CCc1ccc2c(c1)OCO2` [Safrole]: the “increased solubility of APAB, times” value in data set [2] (APAB–MCD molar ratio 1:5 vs water without MCD, UV) is 25 times.

Values taken from article PMC9321718 (Pharmaceuticals, 2022).
